Experiments:
Chlamydomonas HST = target: T1, Chlamydomonas HST (Chlamydomonas reinhardtii, UniProt A1JHN0); experiment: HST assay (TLC, MFBQ formed), recombinant Chlamydomonas HST in E. coli membranes; assay type: biochemical; conditions: TLC, estimated amount of MFBQ formed, relative to controls
T1 construct: GST (N); made in house; host or cells: E. coli (BL21A1 / BL21DE3), membrane fraction
T1 sequence (A1JHN0 51-370): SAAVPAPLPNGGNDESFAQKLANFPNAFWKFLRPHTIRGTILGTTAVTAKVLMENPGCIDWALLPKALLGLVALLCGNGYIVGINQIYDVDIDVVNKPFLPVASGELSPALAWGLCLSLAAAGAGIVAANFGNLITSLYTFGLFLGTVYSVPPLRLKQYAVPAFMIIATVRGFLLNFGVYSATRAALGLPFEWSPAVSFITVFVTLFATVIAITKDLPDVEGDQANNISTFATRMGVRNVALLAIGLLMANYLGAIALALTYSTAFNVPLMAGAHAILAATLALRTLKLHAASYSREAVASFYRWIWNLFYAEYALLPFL
Description: Alternatively, Arabidopsis and Chlamydomonas mature HST coding sequences are cloned as GST N-terminal fusion enzymes and expressed in E. coli.
E. coli. BL21A1 cells expressing mature Arabidopsis or Chlamydonionas HST as a GST N-terminal fusion proteins are grown, harvested, broken and membrane fractions expressing HST produced.
For example, 1 ng of recombinant DNA is used to transform BL21DE3 cells to obtain a plateful of individual colonies. One of these colonies is picked and used to inoculate an overnight culture of 100 ml of Luria Broth (LB) supplemented with 50 ug/ml of kanamycin at final concentration, grown at 37° C. with shaking at 220 rpm. Next morning, 10 mls of the overnight culture is used to inoculate 11 of fresh sterile LB supplemented with 50 ug/ml of kanamycin at final concentration, grown at 37° C. with shaking at 220 rpm until the OD reached 0.6 at 600 nm, induced with the addition of 0.1 mM IPTG and left to induce at 15° C. overnight. The cells are harvested by centrifugation at 4600 rpm for 10 min at 4° C. and the pellet stored at −80° C. […] E. coli cell pellet is then resuspended in 25 ml of 50 mM Tris, pH 7.5 supplemented with Roche EDTA-free protease inhibitor tablet (one tablet in 200 mls of buffer). 10 ml of cells are lysed by sonication on ice. The resultant lysed cells are centrifuged at 3000 g for 10 min to pellet the cell nuclei/debris etc. 10 mls of supernatant is aspirated and centrifuged at 150,000 g for 60 min at 4° C. The pellet containing the membranes is resuspended in 2 ml of the above buffer. These samples are stored as 100 ul aliquots at −80° C., after being diluted with addition of glycerol to 50% v/v.
Prenyltransferase (HST) activities are measured by determining the prenylation rates of [U—^14C]homogentisate using farnesyl diphosphate (FDP) as prenyl donor. ^14C homogentisate is prepared from ^14C tyrosine using L amino acid oxidase and HPPD. For inhibitor testing, compounds are dissolved in dimethylsulfoxide (DMSO). DMSO added at up to 2% v/v has no effect on assays. Control assays contain DMSO at the same concentration as in inhibitor containing assays.
The recombinant Chlamydomonas HST expressed in E. coli membranes is assayed in standard reaction mixtures with 200 μM FDP and 100 μM ^14C-homogentisate (40 dpm/pmol) in 50 mM Tricine-NaOH pH 8.5, 20 mM MgCl2. Assays are started with the addition of enzyme and run for ˜20 min at 28° C.
Recombinant Arabidopsis and Rice HSTs are expressed in insect cells. Assays are run as for Chlamydomonas HST except that assay temperature is 27° C. Assays are stopped with 300 ul of solvent mix (1:2, Chloroform:Methanol) and 100 ul of 0.5% NaCl, agitated/mixed and spun at 13,000 rpm in a benchtop eppendorf centrifuge for 5 minutes. 80 ul of the lower phase extract is loaded onto a TLC plate (silica Gel 60, 20 cm×20 cm) FLA3000 system and run for 35 minutes in dichloromethane. The radioactivity is quantified using a Fuji Phosphoimager and band intensity integrated as quantitative measure of product amount. The bands corresponding to oxidised and reduced 2-methyl-6-farnesyl-1,4-benzoquinol (MFBQ) are identified and the total of the two (oxidised and reduced) band intensities is calculated in order to estimate the total amount of MFBQ product formation. Specific activities of 8 pmol MFBQ min^−1 mg^−1 protein (23 pmol) and 7 pmol MFBQ min^−1 mg^−1 protein (14 pmol) are, for example, estimated for the GST-fusion truncated Arabidopsis HST gene (SEQ ID # 3) expressed in membranes from insect cells 4 days and 5 days after transfection respectively. Similar results are noted from past literature on E. coli expressed Arabidopsis HST. Activity from the insect cell expressed GST-fusion truncated rice HST (SEQ ID# 4) is similar. Expression of the non-truncated HST coding sequences as GST fusions also gives HST activity. […]

[1] = system: wild-type (WT) Samsun tobacco; experiment: Glasshouse spray test, wild-type tobacco; assay type: in vivo; conditions: 500 g/ha; 14 DAT; WT control, reps
Description: Rooted transgenic T0 plantlets are transferred from agar and potted into 50% peat, 50% John Innes soil no 3 or, for example, MetroMix® 380 soil (Sun Gro Horticulture, Bellevue, Wash.) with slow-release fertilizer in 3 inch round or 4 inch square pots and left regularly watered to establish for 8-12 d in the glass house. Glass house conditions are about 24-27° C. day; 18-21° C. night and approximately a 14 h (or longer in UK summer) photoperiod. Humidity is ˜65% and light levels up to 2000 μmol/m^2 at bench level. Once new tissue emerges and plants they have reached the 2-4 leaf stage some of the clones from each event are sprayed with test chemicals dissolved in water with 0.2-0.25% X-77 surfactant and sprayed from a boom on a suitable track sprayer moving at 2 mph in a DeVries spray chamber with the nozzle about 2 inches from the plant tops. Spray volume is suitably 25 gallons per acre or, for example, […].
Test chemicals are, for example, compound 2.3 at 500 g/ha. At the same time that transgenic plants are sprayed so too are w/t Samsun tobacco plants grown from seed as well as non-transgenic plants regenerated from tissue culture and non-transgenic tissue culture escapes. Damage is assessed versus unsprayed control plants of like size and development.
6 Seed from w/t Samsun tobacco and 8 T1 seed from events B8 and G9 are also planted out in 3 inch pots, grown on for 7 to 12 d and then, as described in the foregoing examples, the plantlets spray tested for resistance to various chemicals and assessed at 14 DAT. Chemicals are formulated in 0.2% X77 and sprayed at a spray volume of 200 l/ha.
Seed of wild-type tobacco plants, C2 tobacco plants and of the T1 progeny of a further Arabidopsis-HST expressing tobacco line, D2 were planted out in 3 inch pots, grown on, sprayed with compounds 1.1, 2.30 and 3.6 at the rates shown in table 5. Percent damage scores were assessed at 7 DAT. Aside from the presumptive non-transgenic segregants the D2 line containing the Arabidopis HST expression construct offered the highest level of tolerance to the two HST herbicides with the Psuedomonas HPPD, C2 line, offering only marginal tolerance under the conditions of this test.
Single copy events amongst the T1 plant lines are identified by their 3:1 segregation ratio (wrt kanamycin and or herbicide) and by quantitative RT-PCR. Seed from the thus selected T1 tobacco (var Samsun) lines are sown in 3 inch diameter pots containing 50% peat, 50% John Innes soil no 3. After growth to the 3 leaf stage, plants are sprayed, as described above, in order to test for herbicide tolerance relative to like-treated non-transgenic tobacco plants.
Control tobacco plants and transgenic T1 plants expressing either the Pseudomonas or the wheat HPPD gene are sprayed at 37, 111, 333 and 1000 g/ha rates of HST inhibitors and, for example, compound 2.3.
Plants are assessed and scored for % damage at 16 DAT.

[2] = system: Arabidopsis HST transgenic tobacco plants; experiment: Glasshouse spray test, Arabidopsis HST transgenic tobacco; assay type: in vivo; conditions: 500 g/ha, 14 DAT
From the text: For example the Arabidopsis HST SEQ ID # 11 is cloned behind a double 35s CMV promoter sequence and a TMV translational enhancer sequence and in front of the 3′ terminator from the nos gene. This expression cassette is ligated into pMJB1 (described in WO98/20144) and then into pBIN19 and then transformed into Agrobacterium tuniqfaciens strains LBA4404 prior to plant transformation.
For example, the full length Arabidopsis HST seq ID # 11 is fused to the TMV translational enhancer sequence (SEQ ID #33) by overlapping PCR and, at the same time, 5′ XhoI site and a 3′KpnI site are added by PCR. Site-directed mutagenesis is performed to remove an internal XhoI site. The TMV/HPPD fusion is removed from the pBIN19 by digestion with XhoI/KpnI and is replaced by the TMV/HST fusion (SEQ ID #34). The TMV/HST fusion is now cloned behind a double 35s promoter and in front of the 3′ terminator from the nos gene. Again the modified pBIN19 vector (‘pBinAT HST’) is then transformed into Agrobacterium tumefaciens strain LBA4404.
A master plate of Agrobacterium tumefaciens containing the binary vector pBinAT HST (described above) or analogous binary vector comprising a different HST is used to inoculate 10 ml LB containing 100 mg/1 Rifampicin plus 50 mg/1 Kanamycin using a single bacterial colony. This is incubated overnight at 28° C. shaking at 200 rpm. This entire overnight culture is used to inoculate a 50 ml volume of LA (plus antibiotics). Again this is cultured overnight at 28° C. shaking at 200 rpm. The Agrobacterium cells are pelleted by centrifuging at 3000 rpm for 15 minutes then resuspended in MS medium with 30 g/1 sucrose, pH 5.9 to an OD ([…])=0.6. This suspension is dispensed in 25 ml aliquots into petri dishes.
Clonal micro-propagated tobacco shoot cultures are used to excise young (not yet fully expanded) leaves. The mid rib and outer leaf margins are removed and discarded, the remaining lamina is cut into 1 cm squares. These are transferred to the Agrobacterium suspension for 20 minutes. Explants are then removed, dabbed on sterile filter paper to remove excess suspension then transferred to NBM medium (MS medium, 30 g/1 sucrose, 1 mg/1 BAP, 0.1 mg/1 NAA, pH 5.9, solidified with 8 g/1 Plantagar), with the abaxial surface of each explant in contact with the medium. Approximately 7 explants are transferred per plate, which are then sealed then maintained in a lit incubator at 25° C., 16 hour photoperiod for 3 days.
Explants are then transferred to NBM medium containing 100 mg/1 Kanamycin plus antibiotics to prevent further growth of Agrobacterium (200 mg/1 timentin with 250 mg/1 carbenicillin). Further subculture on to this same medium is then performed every 2 weeks.
As shoots start to regenerate from the callusing leaf explants these are removed to Shoot elongation medium (MS medium, 30 g/1 sucrose, 8 g/1 Plantagar, 100 mg/1 Kanamycin, 200 mg/1 timentin, 250 mg/1 carbenicillin, pH 5.9). Stable transgenic plants readily root within 2 weeks. To provide multiple plants per event to ultimately allow more than one herbicide test per transgenic plant all rooting shoots are micropropagated to generate 3 or more rooted clones.
Putative transgenic plants that are rooting and show vigorous shoot growth on the medium incorporating Kanamycin are analysed by PCR using primers that amplified a 500 bp fragment within the Arabidopsis HST transgene.
Rooted transgenic T0 plantlets are transferred from agar and potted into 50% peat, 50% John Innes soil no 3 or, for example, MetroMix® 380 soil (Sun Gro Horticulture, Bellevue, Wash.) with slow-release fertilizer in 3 inch round or 4 inch square pots and left regularly watered to establish for 8-12 d in the glass house. Glass house conditions are about 24-27° C. day; 18-21° C. night and approximately a 14 h (or longer in UK summer) photoperiod. Humidity is ˜65% and light levels up to 2000 μmol/m^2 at bench level. […]

SMILES | Chlamydomonas. HST % I at 10 ppm (Chlamydomonas HST) | Chlamydomonas. HST % I at 100 ppm (Chlamydomonas HST) | herbicide % damage [1] | herbicide % damage ([2]; T1 progeny of line B8, reps) | herbicide % damage ([2]; T1 progeny of line G9-2, reps)
Nc1nc[nH]n1 [Amitrole, reference compound] | 0% | 0% |  |  | 
CCNc1nc(Cl)nc(NC(C)C)n1 [Atrazine, reference compound] |  |  | 100% | 100% | 100%
O=c1[nH]c2nccnc2c(O)c1-c1c(F)ccc(Br)c1Cl [Compound 2.1] | 10% | 40% |  |  | 
Cc1cc(C)c(-c2c(O)c3nccnc3n(C)c2=O)c(C)c1 [Compound 2.2] | 70% | 95% |  |  | 
O=c1[nH]c2nccnc2c(O)c1-c1ccccc1OC(F)(F)F [Compound 2.6] | 5% | 20% |  |  | 
O=c1[nH]c2nccnc2c(O)c1-c1c(F)ccc(F)c1Cl [Compound 2.7] | 5% | 20% |  |  | 
CN1CC(c2c(F)ccc(F)c2Cl)=C(O)c2ncccc21 [Compound 4.1] | 0% | 0% |  |  | 
